According to ChEMBL document CHEMBL1201862, “PubChem BioAssay data set” (2004):
Active and inactive are the calls of the source.

Legend:
[1] = molecular target: Mitogen-activated protein kinase kinase kinase kinase 4 (Homo sapiens, UniProt O95819); assay type: functional
[2] = molecular target: Glycogen synthase kinase-3 beta (Homo sapiens, UniProt P49841); assay type: functional;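 further: value comes from a broad kinome profiling panel, with GSK3B as the panel member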
[3] = molecular target: cAMP-dependent protein kinase catalytic subunit alpha (Homo sapiens, UniProt P17612); assay type: functional
[4] = molecular target: Interleukin-1 receptor-associated kinase 4 (Homo sapiens, UniProt Q9NWZ3); assay type: functional
Chain of Interleukin-1 receptor-associated kinase 4 (Q9NWZ3 whole entry): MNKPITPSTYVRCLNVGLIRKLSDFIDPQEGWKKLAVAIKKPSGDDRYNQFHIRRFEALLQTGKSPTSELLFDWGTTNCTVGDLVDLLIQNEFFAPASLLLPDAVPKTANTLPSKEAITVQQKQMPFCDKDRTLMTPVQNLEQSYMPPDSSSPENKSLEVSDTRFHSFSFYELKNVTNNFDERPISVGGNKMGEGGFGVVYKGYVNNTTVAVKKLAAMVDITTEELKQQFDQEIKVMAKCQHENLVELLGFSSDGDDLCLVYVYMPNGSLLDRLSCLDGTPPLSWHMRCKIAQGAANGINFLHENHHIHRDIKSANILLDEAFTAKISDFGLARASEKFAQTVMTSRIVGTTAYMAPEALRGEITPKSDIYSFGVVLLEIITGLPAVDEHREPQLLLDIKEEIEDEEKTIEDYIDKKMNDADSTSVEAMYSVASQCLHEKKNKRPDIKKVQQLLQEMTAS

[5] = molecular target: Homeodomain-interacting protein kinase 2 (Homo sapiens, UniProt Q9H2X6); assay type: functional;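 further: measured within a kinome-wide kinase profiling panel, HIPK2 being one panel member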
Chain of Homeodomain-interacting protein kinase 2 (Q9H2X6 whole entry): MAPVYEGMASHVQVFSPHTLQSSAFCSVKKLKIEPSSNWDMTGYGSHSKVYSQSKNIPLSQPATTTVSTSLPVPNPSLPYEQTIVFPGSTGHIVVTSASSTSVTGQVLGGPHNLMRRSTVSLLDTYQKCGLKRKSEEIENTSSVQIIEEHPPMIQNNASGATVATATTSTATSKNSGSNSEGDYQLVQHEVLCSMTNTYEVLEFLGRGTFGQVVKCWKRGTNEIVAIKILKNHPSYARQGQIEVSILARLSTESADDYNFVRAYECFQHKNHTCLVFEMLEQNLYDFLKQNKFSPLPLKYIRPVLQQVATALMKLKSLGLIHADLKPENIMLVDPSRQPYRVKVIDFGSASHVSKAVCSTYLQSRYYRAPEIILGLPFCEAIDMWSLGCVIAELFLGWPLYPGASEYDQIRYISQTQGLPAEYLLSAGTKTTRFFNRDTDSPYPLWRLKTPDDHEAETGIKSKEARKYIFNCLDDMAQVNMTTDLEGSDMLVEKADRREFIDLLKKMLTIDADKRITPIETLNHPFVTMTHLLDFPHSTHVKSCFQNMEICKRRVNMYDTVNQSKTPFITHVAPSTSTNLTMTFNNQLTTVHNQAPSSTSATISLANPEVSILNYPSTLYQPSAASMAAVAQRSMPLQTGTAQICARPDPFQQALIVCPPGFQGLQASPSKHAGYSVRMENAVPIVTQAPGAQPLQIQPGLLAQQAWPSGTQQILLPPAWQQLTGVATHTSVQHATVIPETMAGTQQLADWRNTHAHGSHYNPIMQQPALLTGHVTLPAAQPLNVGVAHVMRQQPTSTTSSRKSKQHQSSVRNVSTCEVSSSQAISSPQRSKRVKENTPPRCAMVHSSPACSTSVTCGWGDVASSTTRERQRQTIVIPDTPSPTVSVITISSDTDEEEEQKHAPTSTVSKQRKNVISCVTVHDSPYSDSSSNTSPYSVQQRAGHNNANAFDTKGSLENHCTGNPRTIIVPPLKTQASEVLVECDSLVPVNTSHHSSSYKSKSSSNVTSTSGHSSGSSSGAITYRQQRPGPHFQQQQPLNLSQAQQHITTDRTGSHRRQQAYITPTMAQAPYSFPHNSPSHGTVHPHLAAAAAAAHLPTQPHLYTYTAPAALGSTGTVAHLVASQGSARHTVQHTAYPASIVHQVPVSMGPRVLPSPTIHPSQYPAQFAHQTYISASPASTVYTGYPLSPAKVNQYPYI

[6] = molecular target: Serine/threonine-protein kinase pim-1 (Homo sapiens, UniProt P11309); assay type: functional
Chain of Serine/threonine-protein kinase pim-1 (P11309 whole entry): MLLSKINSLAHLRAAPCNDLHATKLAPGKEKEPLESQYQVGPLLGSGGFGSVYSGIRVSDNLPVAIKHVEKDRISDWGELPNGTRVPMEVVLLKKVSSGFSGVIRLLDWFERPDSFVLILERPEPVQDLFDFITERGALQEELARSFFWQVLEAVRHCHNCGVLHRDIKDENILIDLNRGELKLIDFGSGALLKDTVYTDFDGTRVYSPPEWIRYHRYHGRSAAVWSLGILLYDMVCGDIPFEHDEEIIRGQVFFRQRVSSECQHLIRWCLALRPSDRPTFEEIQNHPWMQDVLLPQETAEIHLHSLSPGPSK

[7] = molecular target: Cell division cycle 7-related protein kinase (Homo sapiens, UniProt O00311); assay type: functional;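 further: value obtained from a kinome-wide kinase panel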
Chain of Cell division cycle 7-related protein kinase (O00311 whole entry): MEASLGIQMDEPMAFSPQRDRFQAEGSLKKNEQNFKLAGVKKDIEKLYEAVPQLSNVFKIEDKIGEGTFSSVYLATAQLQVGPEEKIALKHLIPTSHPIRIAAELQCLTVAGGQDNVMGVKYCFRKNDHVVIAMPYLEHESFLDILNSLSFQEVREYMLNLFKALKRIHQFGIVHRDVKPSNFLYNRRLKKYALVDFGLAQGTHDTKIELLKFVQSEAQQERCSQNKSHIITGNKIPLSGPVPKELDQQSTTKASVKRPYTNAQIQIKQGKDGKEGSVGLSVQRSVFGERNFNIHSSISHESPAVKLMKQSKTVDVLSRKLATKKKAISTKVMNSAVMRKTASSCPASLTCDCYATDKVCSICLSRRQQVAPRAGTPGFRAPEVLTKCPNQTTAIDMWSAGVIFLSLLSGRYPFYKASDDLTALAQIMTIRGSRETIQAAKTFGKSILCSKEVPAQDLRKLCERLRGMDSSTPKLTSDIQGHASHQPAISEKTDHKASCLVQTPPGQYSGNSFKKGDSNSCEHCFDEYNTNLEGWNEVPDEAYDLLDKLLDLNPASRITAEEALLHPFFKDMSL

[8] = molecular target: Dual specificity protein kinase CLK4 (Homo sapiens, UniProt Q9HAZ1); assay type: functional
Chain of Dual specificity protein kinase CLK4 (Q9HAZ1 whole entry): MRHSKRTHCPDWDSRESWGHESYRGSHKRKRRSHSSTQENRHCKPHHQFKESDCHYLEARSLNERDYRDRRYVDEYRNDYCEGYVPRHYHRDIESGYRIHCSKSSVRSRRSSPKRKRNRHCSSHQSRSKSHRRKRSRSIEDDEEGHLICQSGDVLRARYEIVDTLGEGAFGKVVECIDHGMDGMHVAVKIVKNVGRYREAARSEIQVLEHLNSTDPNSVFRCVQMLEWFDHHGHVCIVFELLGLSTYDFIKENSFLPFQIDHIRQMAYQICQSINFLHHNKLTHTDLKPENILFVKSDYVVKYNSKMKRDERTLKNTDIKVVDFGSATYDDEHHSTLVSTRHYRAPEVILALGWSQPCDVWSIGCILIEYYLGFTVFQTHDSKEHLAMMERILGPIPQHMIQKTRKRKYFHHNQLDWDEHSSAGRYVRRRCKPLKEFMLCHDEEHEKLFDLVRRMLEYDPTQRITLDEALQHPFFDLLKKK

[9] = viability loss in HeLa cells – cytotoxicity control for MgcRacGAP inhibitor project, dose response (AID 624300); assay type: functional
[10] = molecular target: Botulinum neurotoxin type F (Clostridium botulinum, UniProt P30996); test: High-throughput multiplex microsphere dose response for inhibitors of toxin protease, specifically Botulinum neurotoxin light chain F protease, compounds from Cherry Pick 02.; assay type: functional; conditions: read-out: EC50_MICROM
Chain of Botulinum neurotoxin type F (P30996 1-436 limits assumed): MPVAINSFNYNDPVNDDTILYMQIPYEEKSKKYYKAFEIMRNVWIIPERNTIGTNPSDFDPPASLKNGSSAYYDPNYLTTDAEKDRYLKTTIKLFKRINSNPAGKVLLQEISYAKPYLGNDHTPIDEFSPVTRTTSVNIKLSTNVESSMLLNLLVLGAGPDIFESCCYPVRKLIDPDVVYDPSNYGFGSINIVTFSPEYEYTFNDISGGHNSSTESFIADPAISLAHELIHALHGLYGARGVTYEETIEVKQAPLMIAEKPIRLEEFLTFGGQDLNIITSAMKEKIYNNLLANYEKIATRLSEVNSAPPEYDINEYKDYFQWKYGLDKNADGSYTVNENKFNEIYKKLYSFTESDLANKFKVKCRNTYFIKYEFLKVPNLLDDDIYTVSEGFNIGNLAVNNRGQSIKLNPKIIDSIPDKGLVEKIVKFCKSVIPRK

[11] = molecular target: Botulinum neurotoxin type A (Clostridium botulinum (strain Hall / ATCC 3502 / NCTC 13319 / Type A), UniProt P0DPI1); test: High-throughput multiplex microsphere dose response for inhibitors of toxin protease, specifically Botulinum neurotoxin light chain A protease, compounds from Cherry Pick 02.; assay type: functional; conditions: read-out: EC50_MICROM
[12] = molecular target: Nonstructural protein 1 (Influenza A virus, UniProt Q194T2); assay type: functional, Influenza A virus (A/California/07/2009(H1N1))
Chain of Nonstructural protein 1 (Q194T2 whole entry): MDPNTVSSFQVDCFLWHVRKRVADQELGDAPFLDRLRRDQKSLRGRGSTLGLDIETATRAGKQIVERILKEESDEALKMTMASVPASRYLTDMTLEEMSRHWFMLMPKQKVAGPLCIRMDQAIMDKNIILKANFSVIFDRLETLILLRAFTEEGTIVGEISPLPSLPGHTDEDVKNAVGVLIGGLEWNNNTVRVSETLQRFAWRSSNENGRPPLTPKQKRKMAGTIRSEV

[13] = molecular target: Lethal factor (Bacillus anthracis, UniProt P15917); test: High-throughput multiplex microsphere dose response for inhibitors of toxin protease, specifically Lethal Factor protease, compounds from Cherry Pick 02.; assay type: functional; conditions: read-out: EC50_MICROM
Chain of Lethal factor (P15917 whole entry): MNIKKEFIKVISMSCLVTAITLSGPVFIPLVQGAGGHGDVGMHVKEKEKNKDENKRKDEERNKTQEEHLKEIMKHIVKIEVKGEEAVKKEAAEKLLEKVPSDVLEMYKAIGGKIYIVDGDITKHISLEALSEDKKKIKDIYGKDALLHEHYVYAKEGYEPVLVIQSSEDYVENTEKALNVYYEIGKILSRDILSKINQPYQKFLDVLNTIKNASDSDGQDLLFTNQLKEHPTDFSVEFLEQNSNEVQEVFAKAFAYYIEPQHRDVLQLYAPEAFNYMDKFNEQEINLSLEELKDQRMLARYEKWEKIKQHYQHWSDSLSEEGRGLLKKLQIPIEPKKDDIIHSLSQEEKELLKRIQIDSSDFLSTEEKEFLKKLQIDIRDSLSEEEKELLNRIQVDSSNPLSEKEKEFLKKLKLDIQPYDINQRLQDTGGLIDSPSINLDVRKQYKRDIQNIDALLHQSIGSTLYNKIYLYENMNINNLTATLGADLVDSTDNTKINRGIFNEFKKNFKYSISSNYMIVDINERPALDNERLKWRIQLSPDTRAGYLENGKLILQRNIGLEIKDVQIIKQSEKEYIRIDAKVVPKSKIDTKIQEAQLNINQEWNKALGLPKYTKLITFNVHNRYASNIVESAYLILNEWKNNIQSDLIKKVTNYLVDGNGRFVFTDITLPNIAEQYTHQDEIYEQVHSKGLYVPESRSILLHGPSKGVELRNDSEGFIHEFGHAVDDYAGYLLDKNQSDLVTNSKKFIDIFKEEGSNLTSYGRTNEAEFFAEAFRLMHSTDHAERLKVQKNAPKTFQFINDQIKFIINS

[14] = molecular target: T1, Rac GTPase-activating protein 1 (Homo sapiens, UniProt Q9H0H5); test: blockers of MgcRacGAP-driven Rac1 GTP hydrolysis – biochemical, ADP Hunter fluorescence, primary and confirmatory, confirmation (AID 624330); assay type: functional
T1 sequence (Q9H0H5 whole entry): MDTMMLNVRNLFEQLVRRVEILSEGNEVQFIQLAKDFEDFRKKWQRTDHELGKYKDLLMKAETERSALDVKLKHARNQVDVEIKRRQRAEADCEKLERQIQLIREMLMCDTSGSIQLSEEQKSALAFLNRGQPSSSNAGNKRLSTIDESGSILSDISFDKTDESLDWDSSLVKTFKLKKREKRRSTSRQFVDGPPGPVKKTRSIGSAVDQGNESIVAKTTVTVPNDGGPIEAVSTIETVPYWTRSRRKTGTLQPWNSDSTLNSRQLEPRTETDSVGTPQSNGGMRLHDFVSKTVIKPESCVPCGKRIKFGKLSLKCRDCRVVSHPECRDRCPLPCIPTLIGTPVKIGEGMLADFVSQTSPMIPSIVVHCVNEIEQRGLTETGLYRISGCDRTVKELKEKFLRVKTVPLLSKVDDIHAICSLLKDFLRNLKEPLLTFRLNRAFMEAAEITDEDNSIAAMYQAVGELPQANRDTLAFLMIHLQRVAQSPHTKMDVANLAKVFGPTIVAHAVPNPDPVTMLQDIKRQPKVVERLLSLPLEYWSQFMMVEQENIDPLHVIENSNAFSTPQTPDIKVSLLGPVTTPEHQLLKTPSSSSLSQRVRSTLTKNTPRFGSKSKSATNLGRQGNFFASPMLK

[15] = molecular target: T2, Histone-lysine N-methyltransferase NSD2 (Homo sapiens, UniProt O96028); assay type: biochemical
T2 sequence (O96028 whole entry): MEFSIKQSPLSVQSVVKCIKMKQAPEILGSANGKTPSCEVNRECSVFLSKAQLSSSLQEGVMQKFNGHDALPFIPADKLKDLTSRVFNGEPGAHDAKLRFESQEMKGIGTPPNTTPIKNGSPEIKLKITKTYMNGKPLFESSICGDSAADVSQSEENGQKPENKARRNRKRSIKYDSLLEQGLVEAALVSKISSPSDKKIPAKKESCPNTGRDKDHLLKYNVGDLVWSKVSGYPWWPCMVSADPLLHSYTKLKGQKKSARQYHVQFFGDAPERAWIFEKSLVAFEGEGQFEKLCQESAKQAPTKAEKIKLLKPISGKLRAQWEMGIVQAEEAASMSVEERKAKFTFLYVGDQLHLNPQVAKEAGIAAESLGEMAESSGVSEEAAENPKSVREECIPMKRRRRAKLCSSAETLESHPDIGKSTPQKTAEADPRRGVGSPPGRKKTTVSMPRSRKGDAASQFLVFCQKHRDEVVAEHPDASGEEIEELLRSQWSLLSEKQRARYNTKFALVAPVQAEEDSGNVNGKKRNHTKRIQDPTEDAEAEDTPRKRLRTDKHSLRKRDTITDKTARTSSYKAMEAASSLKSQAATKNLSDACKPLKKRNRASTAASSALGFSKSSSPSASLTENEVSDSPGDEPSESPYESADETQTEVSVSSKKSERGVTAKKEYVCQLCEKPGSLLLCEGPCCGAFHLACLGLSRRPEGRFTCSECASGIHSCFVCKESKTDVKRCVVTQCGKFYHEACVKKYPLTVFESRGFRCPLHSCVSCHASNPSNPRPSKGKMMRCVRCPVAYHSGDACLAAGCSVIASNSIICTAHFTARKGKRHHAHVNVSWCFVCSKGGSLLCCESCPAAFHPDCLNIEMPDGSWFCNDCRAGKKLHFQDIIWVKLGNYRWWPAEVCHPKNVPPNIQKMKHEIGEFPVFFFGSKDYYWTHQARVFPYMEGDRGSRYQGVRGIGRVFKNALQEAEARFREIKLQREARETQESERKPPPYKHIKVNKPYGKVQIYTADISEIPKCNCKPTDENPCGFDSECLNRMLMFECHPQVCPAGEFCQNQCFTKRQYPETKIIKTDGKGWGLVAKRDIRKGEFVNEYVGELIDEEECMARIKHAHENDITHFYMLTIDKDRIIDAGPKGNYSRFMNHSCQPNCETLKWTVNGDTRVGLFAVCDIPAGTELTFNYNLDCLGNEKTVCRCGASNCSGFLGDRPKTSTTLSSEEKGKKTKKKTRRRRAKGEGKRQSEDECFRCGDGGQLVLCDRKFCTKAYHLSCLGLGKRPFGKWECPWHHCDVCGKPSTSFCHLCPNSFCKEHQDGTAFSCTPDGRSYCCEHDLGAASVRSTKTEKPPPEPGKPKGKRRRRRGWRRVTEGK

Chain of Glycogen synthase kinase-3 beta (P49841 whole entry): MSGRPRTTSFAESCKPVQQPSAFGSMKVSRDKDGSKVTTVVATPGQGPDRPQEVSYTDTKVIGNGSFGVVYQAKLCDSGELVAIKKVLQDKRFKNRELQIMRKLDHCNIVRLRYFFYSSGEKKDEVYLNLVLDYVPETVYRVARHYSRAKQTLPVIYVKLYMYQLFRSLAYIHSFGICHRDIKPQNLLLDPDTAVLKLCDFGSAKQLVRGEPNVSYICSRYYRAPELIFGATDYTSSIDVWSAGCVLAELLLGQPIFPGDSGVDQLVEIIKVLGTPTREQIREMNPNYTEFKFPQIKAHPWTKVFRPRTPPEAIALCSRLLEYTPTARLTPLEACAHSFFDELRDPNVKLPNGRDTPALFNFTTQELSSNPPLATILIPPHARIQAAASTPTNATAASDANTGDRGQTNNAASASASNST

| Structure (SMILES) | Ki [1] | Ki [2] | Ki [3] | Ki [4] | Ki [5] | Ki [6] | Ki [7] | Ki [8] | CC50 [9] | EC50 [10] | EC50 [11] | IC50 [12] | EC50 [13] | IC50 [14] | AC50 [15] |
| --- | --- | --- | --- | --- | --- | --- | --- | --- | --- | --- | --- | --- | --- | --- | --- |
| COCCN(CCOC)c1cc(-c2c[nH]c3ncccc23)cc(Cl)n1 | 0.02 µM (active) | 1 µM (active) | 0.501 µM (active) | 2.51 µM (active) | 0.251 µM (active) | 1.26 µM (active) | 0.01 µM (active) | 0.01 µM (active) | – | – | – | – | – | – | – |
| CN(C)c1ccc(/C=C2/C[N+](C)(C)C/C(=C/c3ccc(N(C)C)cc3)C2=O)cc1 | – | – | – | – | – | – | – | – | 100 µM (active) | > 20 µM (inactive) | 1.6 µM (active) | 6.59 µM (active) | 0.6 µM (active) | 82.9 µM (active) | 11.9 µM (active) |
